From patent US12215085B2 (priority 2019, dated 2025)

Assays:
[1] = tested on: rats with common carotid artery occlusion-induced vascular dementia; experiment: Water maze test, common carotid artery occlusion-induced vascular dementia rats; format: in vivo, rat; details: succinate; for orientation angle for reaching the platform / speed for reaching the platform / swimming path length for reaching the platform / time for reaching the platform: x ± s; for Average speed / Number of crossing the platform / Orientation angle / Swimming path length in the platform area/total swimming path length × 100% / Time in the platform area / Time in the platform quadrants: Day 7
Source text: (§1) A rat blood vessel dementia model was made according to the references [ZHAO Xian-lin, FANG Xiu-bin, LI Dong-pei. Establishment of Vascular Dementia Model in Rats, J Chin Med Univ, 2002, 31 (3): 166-168; WANG Yong-yan, Zhang Bo-li, Editor-in-chief. Modern Chinese Medicine Clinic and Research on Vascular Dementia, People's Medical Publishing House, October 2003, First Version 214]: Chloral hydrate 0.4 g/kg was intraperitoneally injected for anesthetizing rats, and bilateral common carotid arteries were isolated and ligated. The animals were fed for 16 weeks, divided into groups on the last 7 days, and administered. The normal control group and the model group were administrated through the intragastric route with distilled water by 0.5 ml/100 g, the positive control group was administrated through the intragastric route with donepezil hydrochloride by 1.75 mg/kg (equivalent to 3.85 times the clinical daily dosage of 5 mg/70 kg), the low, medium and high-dose groups of Crystal Form A of octahydroaminoacridine succinate were administrated through the intragastric route with Crystal Form A of octahydroaminoacridine succinate by 0.7, 1.4 and 2.8 mg/kg (equivalent to 0.96, 1.92 and 3.85 times the clinical daily dosage of 8 mg/70 kg). The water maze test and the step-down test were carried out after continuous administration for 7 days, and the administration was continued during the test period. The water maze test was continuously performed for 7 days, in the first 6 days, in four different water entry points of quadrants 1, 2, 3 and 4, the time, the swimming path length, the orientation angle and the average speed of the rat reaching the platform were measured, meanwhile, the strategy for reaching the platform adopted by rats was observed, on the 7th day, the platform was removed, the number of rats crossing the platform in 2 minutes, the residence time in the platform area, the residence time in the platform quadrants, the percentage of the swimming path length in the platform area quadrants to the total swimming path length, the average speed and the orientation angle were measured. After the water maze test was finished, the step-down test was performed, and the number of electric shocks (or called as the error number) received by each rat within 5 minutes was recorded as the learning performance. The test was performed again after 24 hours, namely, the memory retention test, and the latent period for stepping-down the platform for the first time and the error number in five minutes were recorded. After the step-down test was finished, the brain was taken quickly for pathological examination, and the pathological changes of the hippocampus and the cortex were observed.

[2] = tested on: rats with common carotid artery occlusion-induced vascular dementia; experiment: Step-down test, common carotid artery occlusion-induced vascular dementia rats; format: in vivo, rat; details: step-down method, x ± s, succinate
Source text: as §1

[3] = Day 1, 0.7 mg/kg intragastric, 0.7 mg/kg
[4] = Day 1, 1.4 mg/kg intragastric, 1.4 mg/kg
[5] = Day 1, 2.8 mg/kg intragastric, 2.8 mg/kg
[6] = Day 2, 0.7 mg/kg intragastric, 0.7 mg/kg
[7] = Day 2, 1.4 mg/kg intragastric, 1.4 mg/kg
[8] = Day 2, 2.8 mg/kg intragastric, 2.8 mg/kg
[9] = Day 3, 0.7 mg/kg intragastric, 0.7 mg/kg
[10] = Day 3, 1.4 mg/kg intragastric, 1.4 mg/kg
[11] = Day 3, 2.8 mg/kg intragastric, 2.8 mg/kg
[12] = Day 4, 0.7 mg/kg intragastric, 0.7 mg/kg
[13] = Day 4, 1.4 mg/kg intragastric, 1.4 mg/kg
[14] = Day 4, 2.8 mg/kg intragastric, 2.8 mg/kg
[15] = Day 5, 0.7 mg/kg intragastric, 0.7 mg/kg
[16] = Day 5, 1.4 mg/kg intragastric, 1.4 mg/kg
[17] = Day 5, 2.8 mg/kg intragastric, 2.8 mg/kg
[18] = Day 6, 0.7 mg/kg intragastric, 0.7 mg/kg
[19] = Day 6, 1.4 mg/kg intragastric, 1.4 mg/kg
[20] = Day 6, 2.8 mg/kg intragastric, 2.8 mg/kg
[21] = 0.7 mg/kg intragastric, 0.7 mg/kg
[22] = 1.4 mg/kg intragastric, 1.4 mg/kg
[23] = 2.8 mg/kg intragastric, 2.8 mg/kg

Nc1c2c(nc3c1CCCC3)CCCC2.O=C(O)CCC(=O)O [Crystal Form K, 9-amino-1,2,3,4,5,6,7,8-octahydroacridine succinate]
adopted strategy for reaching the platform (the peripheral type and the random type %) [1, 3]: 93.00%
orientation angle for reaching the platform [1, 3]: 68.46 ± 25.21 °
speed for reaching the platform [1, 3]: 21.26 ± 4.78 cm/s
swimming path length for reaching the platform [1, 3]: 1602.41 ± 583.25 cm
time for reaching the platform [1, 3]: 75.36 ± 14.23 s
adopted strategy for reaching the platform (the peripheral type and the random type %) [1, 4]: 86.50%
orientation angle for reaching the platform [1, 4]: 69.28 ± 21.03 °
speed for reaching the platform [1, 4]: 20.45 ± 9.24 cm/s
swimming path length for reaching the platform [1, 4]: 1502.83 ± 613.11 cm
time for reaching the platform [1, 4]: 73.45 ± 14.49 s
adopted strategy for reaching the platform (the peripheral type and the random type %) [1, 5]: 79.00%
orientation angle for reaching the platform [1, 5]: 70.38 ± 18.48 °
speed for reaching the platform [1, 5]: 19.88 ± 6.76 cm/s
swimming path length for reaching the platform [1, 5]: 1211.27 ± 259.82 cm
time for reaching the platform [1, 5]: 70.25 ± 9.82 s
adopted strategy for reaching the platform (the peripheral type and the random type %) [1, 6]: 83.50%
orientation angle for reaching the platform [1, 6]: 60.47 ± 24.23 °
speed for reaching the platform [1, 6]: 21.66 ± 8.76 cm/s
swimming path length for reaching the platform [1, 6]: 1242.31 ± 438.47 cm
time for reaching the platform [1, 6]: 57.33 ± 17.88 s
adopted strategy for reaching the platform (the peripheral type and the random type %) [1, 7]: 80.00%
orientation angle for reaching the platform [1, 7]: 58.29 ± 17.83 °
speed for reaching the platform [1, 7]: 24.28 ± 9.65 cm/s
swimming path length for reaching the platform [1, 7]: 1219.38 ± 892.43 cm
time for reaching the platform [1, 7]: 50.21 ± 20.11 s
adopted strategy for reaching the platform (the peripheral type and the random type %) [1, 8]: 76.50%
orientation angle for reaching the platform [1, 8]: 57.88 ± 17.43 °
speed for reaching the platform [1, 8]: 28.24 ± 4.72 cm/s
swimming path length for reaching the platform [1, 8]: 1377.38 ± 328.92 cm
time for reaching the platform [1, 8]: 47.36 ± 14.52 s
adopted strategy for reaching the platform (the peripheral type and the random type %) [1, 9]: 70.50%
orientation angle for reaching the platform [1, 9]: 59.03 ± 16.89 °
speed for reaching the platform [1, 9]: 20.12 ± 8.22 cm/s
swimming path length for reaching the platform [1, 9]: 749.48 ± 427.45 cm
time for reaching the platform [1, 9]: 45.78 ± 10.33 s
adopted strategy for reaching the platform (the peripheral type and the random type %) [1, 10]: 71.00%
orientation angle for reaching the platform [1, 10]: 58.22 ± 10.34 °
speed for reaching the platform [1, 10]: 21.34 ± 6.99 cm/s
swimming path length for reaching the platform [1, 10]: 763.45 ± 414.55 cm
time for reaching the platform [1, 10]: 44.29 ± 20.13 s
adopted strategy for reaching the platform (the peripheral type and the random type %) [1, 11]: 65.50%
orientation angle for reaching the platform [1, 11]: 55.11 ± 16.99 °
speed for reaching the platform [1, 11]: 20.10 ± 6.82 cm/s
swimming path length for reaching the platform [1, 11]: 644.62 ± 582.37 cm
time for reaching the platform [1, 11]: 40.67 ± 13.41 s
adopted strategy for reaching the platform (the peripheral type and the random type %) [1, 12]: 75.50%
orientation angle for reaching the platform [1, 12]: 55.36 ± 19.61 °
speed for reaching the platform [1, 12]: 21.70 ± 10.21 cm/s
swimming path length for reaching the platform [1, 12]: 788.25 ± 300.86 cm
time for reaching the platform [1, 12]: 40.55 ± 16.73 s
adopted strategy for reaching the platform (the peripheral type and the random type %) [1, 13]: 68.00%
orientation angle for reaching the platform [1, 13]: 53.49 ± 14.67 °
speed for reaching the platform [1, 13]: 20.28 ± 6.02 cm/s
swimming path length for reaching the platform [1, 13]: 752.34 ± 467.22 cm
time for reaching the platform [1, 13]: 39.57 ± 18.69 s
adopted strategy for reaching the platform (the peripheral type and the random type %) [1, 14]: 62.50%
orientation angle for reaching the platform [1, 14]: 50.35 ± 15.5 °
speed for reaching the platform [1, 14]: 21.00 ± 5.91 cm/s
swimming path length for reaching the platform [1, 14]: 703.47 ± 231.68 cm
time for reaching the platform [1, 14]: 37.88 ± 17.67 s
adopted strategy for reaching the platform (the peripheral type and the random type %) [1, 15]: 72.50%
orientation angle for reaching the platform [1, 15]: 53.56 ± 14.56 °
speed for reaching the platform [1, 15]: 21.42 ± 7.22 cm/s
swimming path length for reaching the platform [1, 15]: 664.56 ± 562.88 cm
time for reaching the platform [1, 15]: 31.42 ± 17.35 s
adopted strategy for reaching the platform (the peripheral type and the random type %) [1, 16]: 62.00%
orientation angle for reaching the platform [1, 16]: 52.76 ± 19.40 °
speed for reaching the platform [1, 16]: 21.26 ± 8.46 cm/s
swimming path length for reaching the platform [1, 16]: 689.43 ± 267.98 cm
time for reaching the platform [1, 16]: 34.62 ± 12.48 s
adopted strategy for reaching the platform (the peripheral type and the random type %) [1, 17]: 58.50%
orientation angle for reaching the platform [1, 17]: 53.49 ± 23.42 °
speed for reaching the platform [1, 17]: 22.93 ± 6.31 cm/s
swimming path length for reaching the platform [1, 17]: 642.45 ± 386.45 cm
time for reaching the platform [1, 17]: 28.41 ± 8.73 s
adopted strategy for reaching the platform (the peripheral type and the random type %) [1, 18]: 70.00%
orientation angle for reaching the platform [1, 18]: 50.39 ± 22.30 °
speed for reaching the platform [1, 18]: 19.52 ± 14.27 cm/s
swimming path length for reaching the platform [1, 18]: 523.46 ± 237.12 cm
time for reaching the platform [1, 18]: 32.45 ± 21.25 s
adopted strategy for reaching the platform (the peripheral type and the random type %) [1, 19]: 66.50%
orientation angle for reaching the platform [1, 19]: 50.34 ± 20.04 °
speed for reaching the platform [1, 19]: 22.54 ± 9.36 cm/s
swimming path length for reaching the platform [1, 19]: 531.55 ± 169.37 cm
time for reaching the platform [1, 19]: 28.21 ± 15.63 s
adopted strategy for reaching the platform (the peripheral type and the random type %) [1, 20]: 54.00%
orientation angle for reaching the platform [1, 20]: 46.37 ± 26.8 °
speed for reaching the platform [1, 20]: 21.32 ± 7.46 cm/s
swimming path length for reaching the platform [1, 20]: 502.78 ± 482.65 cm
time for reaching the platform [1, 20]: 29.10 ± 17.83 s
Average speed [1, 21]: 23.62 ± 8.38 cm/s
Number of crossing the platform [1, 21]: 5.67 ± 3.45
Orientation angle [1, 21]: 27.88 ± 6.57 °
Swimming path length in the platform area/total swimming path length × 100% [1, 21]: 26.88 ± 7.36%
Time in the platform area [1, 21]: 2.87 ± 2.14 s
Time in the platform quadrants [1, 21]: 35.61 ± 10.91 s
Average speed [1, 22]: 24.69 ± 5.76 cm/s
Number of crossing the platform [1, 22]: 7.25 ± 2.45
Orientation angle [1, 22]: 24.69 ± 8.21 °
Swimming path length in the platform area/total swimming path length × 100% [1, 22]: 28.74 ± 8.90%
Time in the platform area [1, 22]: 2.18 ± 2.34 s
Time in the platform quadrants [1, 22]: 37.88 ± 12.37 s
Average speed [1, 23]: 25.45 ± 6.98 cm/s
Number of crossing the platform [1, 23]: 7.49 ± 3.51
Orientation angle [1, 23]: 23.57 ± 4.76 °
Swimming path length in the platform area/total swimming path length × 100% [1, 23]: 27.39 ± 10.42%
Time in the platform area [1, 23]: 2.56 ± 3.27 s
Time in the platform quadrants [1, 23]: 34.52 ± 15.82 s
Day 1, Error number [2, 21]: 9.21 ± 4.52
Day 2, Error latency [2, 21]: 146.89 ± 60.45 s
Day 2, Error number [2, 21]: 2.49 ± 2.35
Day 1, Error number [2, 22]: 8.34 ± 3.78
Day 2, Error latency [2, 22]: 178.46 ± 52.77 s
Day 2, Error number [2, 22]: 3.34 ± 1.49
Day 1, Error number [2, 23]: 8.46 ± 4.68
Day 2, Error latency [2, 23]: 192.55 ± 87.48 s
Day 2, Error number [2, 23]: 3.41 ± 1.88
